{
  "source": "patent US8674070B2",
  "about": "“Cancer-targeting peptides and uses thereof in cancer therapy” (Academia Sinica, priority 2009, dated 2014)",
  "key": {"breast tumor xenografts": {"system": "breast tumor xenografts", "experiment": "In vivo peptide competition: co-injection with PC90 in mice bearing breast tumor xenografts", "conditions": "100 μg peptide co-injected with PC90", "procedure": "SP90 was co-administered to test its ability of blocking PC90 from binding to the tumor tissues. Briefly, 100 μg SP90 or the control peptides described above were co-injected with PC90 to mice bearing breast tumor xenografts. The normal organs and tumor tissues were removed and fixed in Bouin's solution (Sigma, Mo., USA). After fixation, the samples were embedded in paraffin blocks, sliced to sections, and the sections were deparaffinized, rehydrated, and subjected to immunostaining using the mouse anti-M13 mAb described in Example 1 above."}, "[1]": {"system": "cancer cells in breast cancer tissue samples", "experiment": "Peptide competition assay on cancer tissue samples", "format": "binding, human", "conditions": "peptide 100 ng/ml; PC90 10^9 pfu", "procedure": "The cancer targeting activity of PC90 was confirmed by a peptide competition assay, in which the cancer tissue samples were incubated with (1) the synthetic peptide (100 ng/ml) SMDPFLFQLLQL (SEQ ID NO:5) (SP90) and PC90 (10^9 pfu) or (2) the control peptide (100 ng/ml) RLLDTNRPLLPY (SEQ ID NO:6; see Lee et al., cancer Res. 64:8002-8008, 2004) and PC90. SP90 and the control peptide were synthesized and purified by reverse-phase high-performance liquid chromatography. The resultant peptides, having a purity of greater than 95%, were conjugated, if necessary, with FITC or biotin at their N-termini."}, "[2]": {"system": "BT483 breast cancer xenografts", "experiment": "Treatment of breast tumor xenografts: tumor volume", "format": "in vivo, SCID mice", "conditions": "doxorubicin 3 mg/kg once a week for three weeks, tail vein; n=6, P<0.005", "procedure": "SCID mice (4-6 weeks of age) were injected s.c. in the dorsolateral flank with 1×10^7 BT483 cells to induce breast cancer xenografts. The tumor volumes in these mice were determined by the formula: length×[…]×0.52. The mice bearing xenograft tumors at a size of around 50-100 mm^3 were randomly assigned to four groups, each of which was treated as follows via administration through their tail veins.\nGroup 1: treated with SP90 conjugated doxorubicin-containing liposomes (SP90-LD) at a doxorubicin dosage of 3 mg/kg, once a week for three weeks,\nGroup 2: treated with doxorubicin-containing liposomes (LD), at a doxorubicin dosage of 3 mg/kg, once a week for three weeks,\nGroup 3: treated with free doxorubicin (FD), at a doxorubicin dosage of 3 mg/kg, once a week for three weeks, and\nGroup 4: treated with saline once a week for three weeks (blank control).\nMouse body weights and tumor sizes were measured twice a week. Tumor volumes were calculated following the formula described above."}, "[3]": {"experiment": "Total white blood cell count in treated tumor-bearing mice", "format": "in vivo, SCID mice", "conditions": "three days after the last treatment (day 17); doxorubicin 3 mg/kg weekly x3", "procedure": "The total white blood cell (WBC) numbers in the treated mice were determined three days after the last treatment (i.e., on day 17) as follows. […] The blood was then mixed with a red blood cell lysis buffer containing 2% acetic acid and 1% of Gentian violet (Sigma-Aldrich, Saint Louis, Mo., USA) and incubated at room temperature. The number of the WBCs was countered using a hemacytometer."}, "[4]": {"experiment": "Doxorubicin localization in tumor tissues of treated mice", "format": "in vivo, SCID mice", "conditions": "2 mg/kg tail vein", "excerpt": "At selected time points, three mice in each group were anaesthetized and sacrificed."}, "tumor blood vessels": {"system": "tumor blood vessels", "experiment": "Tumor blood vessel staining with tomato lectin", "format": "in vivo, SCID mice", "conditions": "doxorubicin 3 mg/kg weekly x3; FIG. 3 Panel B", "excerpt": "Tumor tissues were removed from the treated mice, fixed with 4% paraformaldehyde and embedded with paraffin. Blood vessels in the tumor tissues were detected by staining with Lycopersicon esculentum (tomato) lectin conjugated to biotin (Vector, CA, USA) and then with streptavidin-conjugated rhodamine (Pierce, Ill., USA)."}},
  "data": [
    {"compound": "RLLDTNRPLLPY [control peptide]", "values": [
      {"measurement": "inhibition of PC90 binding to the tumor tissues", "setting": "breast tumor xenografts", "result": "did not exhibit any inhibitory activity"},
      {"measurement": "competition against PC90 for binding to the cancer cells in the tissue samples", "setting": "[1]", "result": "not"}
    ]},
    {"compound": "SMDPFLFQLLQL [SP90]", "values": [
      {"measurement": "inhibition of PC90 binding to the tumor tissues", "setting": "breast tumor xenografts", "result": 97, "unit": "%"},
      {"measurement": "competition against PC90 for binding to the cancer cells in the tissue samples", "setting": "[1]", "result": "competed against PC90 for binding to the cancer cells"}
    ]},
    {"compound": "COc1cccc2c1C(=O)c1c(O)c3c(c(O)c1C2=O)C[C@@](O)(C(=O)CO)C[C@@H]3O[C@H]1C[C@H](N)[C@H](O)[C@H](C)O1", "note": "[FD, doxorubicin]", "values": [
      {"measurement": "average tumor volume, fold larger than that of the Group 2 mice", "setting": "[2]", "result": 8.3, "unit": "fold"},
      {"measurement": "total number of the WBCs", "setting": "[3]", "result": "5.6×10^3 /mm^3"},
      {"measurement": "areas of tumor tissue in which doxorubicin was detected (autofluorescence)", "setting": "[4]", "result": "detected only in limited areas"},
      {"measurement": "number of tumor vessels / tumor vascular density (lectin staining)", "setting": "tumor blood vessels", "result": "high tumor vascular density"}
    ]}
  ]
}
